From US9510598B2, “Nitrogen-containing heterocyclic compounds for plant disease control” (BAYER CROPSCIENCE AG, priority 2012, dated 2016) come the findings set out here.

Where two headings read alike, the source gives them in different places.

One series concerns Alternaria brassicae. As to the kind of experiment: In vivo preventive test on Alternaria brassicae (leaf spot on radish). Conditions: 500 ppm; radish plants sprayed 24 hours before contamination; grading 5 days after contamination vs control plants. On the procedure:
Radish plants (“Pernod Clair” variety), sown in starter cups on a 50/50 peat soil-pozzolana substrate and grown at 17° C., are treated at the 2-leaf stage by spraying with the active ingredient prepared as described above. Plants, used as controls, are treated with the mixture of acetone/tween/DMSO/water not containing the active material. After 24 hours, the plants are contaminated by spraying the leaves with an aqueous suspension of Alternaria brassicae spores (50 000 spores per ml). The spores are collected from a 15-day-old culture. […] Grading (% of efficacy) is carried out 5 days after the contamination, in comparison with the control plants.

The format of series [1] is physicochemical.
The next series concerns Botrytis cinerea. The series is described as follows: In vivo preventive test on Botrytis cinerea (grey mould). Conditions: 500 ppm; gherkin plants sprayed 24 hours before contamination; grading 4-5 days after contamination vs control plants. A digest of the protocol:
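Gherkin plants ("Vert petit de Paris") sprayed with compound at Z11 cotyledon stage, then inoculated 24 h later with B. cinerea spores (50 000/ml) in PDB/fructose/NH4NO3/KH2PO4 nutrient solution. Incubated at 17 °C, 80% RH; % efficacy versus solvent-treated controls graded 4–5 days after contamination.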

A further series concerns Sphaerotheca fuliginea. The series is described as follows: In vivo preventive test on Sphaerotheca fuliginea (powdery mildew on cucurbits). To be noted: 500 ppm; gherkin plants sprayed 24 hours before contamination; grading 12 days after contamination vs control plants. Summed up:
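Preventive spray of gherkin plants at Z11 cotyledon stage, grown at 24° C; inoculation 24 hours later with Sphaerotheca fuliginea spores (100 000 spores per ml). Efficacy graded 12 days post-inoculation as % versus solvent-treated control plants.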

Another series relates to Septoria tritici. As to the kind of experiment: In vivo preventive test on Septoria tritici (leaf spot on wheat). To be noted: 500 ppm; wheat plants sprayed 24 hours before contamination; grading 21 to 28 days after contamination vs control plants. Summed up:
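Scipion wheat at 1-leaf stage sprayed with compound, controls receiving acetone/tween/DMSO/water vehicle; 24 h later leaves inoculated with Septoria tritici spores (500 000 spores per ml). Efficacy (%) graded versus control plants 21 to 28 days after contamination.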

The test system of a further series is Phytophthora infestans. The format is in vivo. To be noted: 500 ppm; tomato plants sprayed 24 hours before contamination; grading 5 days after contamination vs control plants.
Setting [2] is: method [a]: HPLC/LC-MS on reversed phase at pH 2.7, 0.1% formic acid in water / acetonitrile, gradient 10% to 95% acetonitrile.
Setting [3] is: method [a]: HPLC/LC-MS on reversed phase at pH 2.7, 0.1% formic acid in water / acetonitrile, linear gradient 10% to 95% acetonitrile.
[4] abbreviates: HPLC on reversed phase columns, method [a]: pH 2.7, 0.1% formic acid in water / acetonitrile, linear gradient 10% to 95% acetonitrile.
[5] abbreviates: HPLC on reversed phase columns, method [a]: pH 2.7, 0.1% formic acid in water and acetonitrile, linear gradient 10% to 95% acetonitrile.

On to `CCOCCCNC(=O)C1(CC2CC2)CC(c2ccc3ncc(Br)cc3c2)=NO1` (racemic) [compound 426], for which the “% of efficacy (protection)” value in the series with Alternaria brassicae was 78%. Moreover, the “log P” value in series [1] (setting [2]) was 3.55[a].
Take `O=C(NC1CC1)C1(CC2CC2)CC(c2ccc3ncc(Br)cc3c2)=NO1` (racemic) [compound 427]: in the series with Alternaria brassicae, the “% of efficacy (protection)” value is on record as 83%. In series [1] (setting [2]), the “log P” value is 3.20[a].
As to `CC1(C(=O)NCc2ccc(Oc3ccccc3)cc2)CC(c2ccc3ncc(Br)cc3c2)=NO1` (stereo not drawn) [compound 84], the “% of efficacy (protection)” value with Alternaria brassicae came out at 80%. Besides, the “log P” value in series [1] (setting [3]) is 4.24^[a].
Regarding `CC1(C(=O)NCc2ccc(Cl)cc2Cl)CC(c2ccc3ncc(Br)cc3c2)=NO1` (stereo not drawn) [compound 95], the “% of efficacy (protection)” value in the series with Alternaria brassicae is 70%. Further, the “log P” value in series [1] (setting [3]) is 4.16^[a].
The corresponding values for `CC1(C(=O)NCc2ccnc(N3CCOCC3)c2)CC(c2ccc3ncc(Br)cc3c2)=NO1` (stereo not drawn) [compound 98] are 70% and 1.51^[a].
The corresponding values for `CC1(C(=O)NCc2ccco2)CC(c2ccc3ncc(Br)cc3c2)=NO1` (stereo not drawn) [compound 161] are 75% and 2.82^[a].
The corresponding values for `C#Cc1cnc2ccc(C3=NOC(C)(C(=O)NCc4ccc(C)o4)C3)cc2c1` (stereo not drawn) [compound 163] are 88% and 2.8^[a].
`C#Cc1cnc2ccc(C3=NOC(C)(C(=O)NCc4ccc(OC(F)(F)F)cc4)C3)cc2c1` (stereo not drawn) [compound 173]: the “% of efficacy (protection)” value in the series with Alternaria brassicae is recorded as 88%. Further, in series [1] (setting [3]), the “log P” value is 3.53^[a].
The corresponding values for `C#Cc1cnc2ccc(C3=NOC(C)(C(=O)NCc4ccccc4Oc4ccccc4)C3)cc2c1` (stereo not drawn) [compound 187] are 88% and 3.89^[a].
The corresponding values for `CC1(C(=O)NCc2cccc(OC(F)(F)F)c2)CC(c2ccc3ncc(Br)cc3c2)=NO1` (stereo not drawn) [compound 188] are 88% and 3.89^[a].
Taken in the same sequence, the figures for `C#Cc1cnc2ccc(C3=NOC(C)(C(=O)NCc4ccc5c(c4)OCCO5)C3)cc2c1` (stereo not drawn) [compound 208] were 88% and 2.71^[a].
Take `CC1(C(=O)NCC2(c3ccc(F)cc3)CC2)CC(c2ccc3ncc(Br)cc3c2)=NO1` (stereo not drawn) [compound 221]: in the series with Alternaria brassicae, the “% of efficacy (protection)” value was 98%. Besides, the “log P” value in series [1] (setting [3]) was 3.81^[a].
For `C#Cc1cnc2ccc(C3=NOC(C)(C(=O)NCc4ccc5[nH]c(C)cc5c4)C3)cc2c1` (stereo not drawn) [compound 226], in the series on Alternaria brassicae, the “% of efficacy (protection)” value is reported as 81%. Moreover, the “log P” value in series [1] (setting [3]) was 2.84^[a].
Take `CC1(C(=O)NCc2csc3ccc(Cl)cc23)CC(c2ccc3ncc(Br)cc3c2)=NO1` (stereo not drawn) [compound 241]: the “% of efficacy (protection)” value with Alternaria brassicae was 81%. Further, the “log P” value in series [1] (setting [4]) was 4.21^[a].
On to `CC(NC(=O)C1(C)CC(c2ccc3ncc(Br)cc3c2)=NO1)C1CCOC1` (stereo not drawn) [compound 291], for which the “% of efficacy (protection)” value in the series with Botrytis cinerea stood at 88%; in the series with Sphaerotheca fuliginea, 80%; in the series with Septoria tritici it was 100%; in the series with Phytophthora infestans it was 87%. The “log P” value in series [1] (setting [4]) was 2.46[a].
`C#Cc1cnc2ccc(C3=NOC(OC)(C(=O)NCc4c(C)cnn4CCC)C3)cc2c1` (stereo not drawn) [compound 409]: the “% of efficacy (protection)” value in the series on Botrytis cinerea is on record as 100%; in the series with Sphaerotheca fuliginea, 98%; in the series with Septoria tritici, 100%; with Phytophthora infestans it was 100%. In addition, the “log P” value in series [1] (setting [2]) is 2.33[a].
With `C#Cc1cnc2ccc(C3=NOC(C)(C(=O)NC(C)(C)/C=N/OC)C3)cc2c1` (stereo not drawn) [compound 463], the “% of efficacy (protection)” value in the series with Botrytis cinerea was found to be 100%; in the series with Sphaerotheca fuliginea, 97%; in the series with Septoria tritici, 100%; with Phytophthora infestans, 100%. Further, in series [1] (setting [2]), the “log P” value is 2.92[a].
`C#Cc1cnc2ccc(C3=NOC(C)(C(=O)NCc4cnn(CC)c4CC)C3)cc2c1` (stereo not drawn) [compound 464]: the “% of efficacy (protection)” value with Botrytis cinerea is 98%; with Sphaerotheca fuliginea, 100%; in the series with Septoria tritici it was 100%; with Phytophthora infestans, 100%. Moreover, in series [1] (setting [2]), the “log P” value was 2.37[a].
For the molecule `C#Cc1cnc2ccc(C3=NOC(C)(C(=O)NC(C)(C)C#CCOC)C3)cc2c1` (stereo not drawn) [compound 465], the “% of efficacy (protection)” value was found to be 88% in the series on Botrytis cinerea, 81% in the series with Sphaerotheca fuliginea, 97% in the series with Septoria tritici and 100% in the series with Phytophthora infestans. Further, the “log P” value in series [1] (setting [2]) was 2.82[a].
Taken in the same sequence, the figures for `C#Cc1cnc2ccc(C3=NOC(C)(C(=O)NC4CCOCC4C)C3)cc2c1` (stereo not drawn) [compound 470] were 100%, 75%, 97%, 98% and 2.21[a].
For `CC1(C)OCC(CNC(=O)C2(C)CC(c3ccc4ncc(I)cc4c3)=NO2)O1` (stereo not drawn) [compound 474], the “% of efficacy (protection)” value is 100% in the series on Botrytis cinerea, 98% with Sphaerotheca fuliginea, 97% in the series with Septoria tritici and 78% in the series on Phytophthora infestans. Besides, the “log P” value in series [1] (setting [2]) was 2.78[a].
Consider `CCCn1cc(CNC(=O)C2(CC)CC(c3ccc4ncc(Br)cc4c3)=NO2)c(C)n1` (stereo not drawn) [compound 500], for which the “% of efficacy (protection)” value was 85% with Botrytis cinerea, 100% with Sphaerotheca fuliginea, 86% with Septoria tritici and 94% with Phytophthora infestans. Further, the “log P” value in series [1] (setting [2]) was 2.91[a].
Taken in the same sequence, the figures for `C#Cc1cnc2ccc(C3=NOC(C)(C(=O)NC(C)COCC)C3)cc2c1` (stereo not drawn) [compound 506] were 100%, 97%, 100%, 94% and 2.55[a].
In the case of `C#Cc1cnc2ccc(C3=NOC(OC)(C(=O)NC(C)(C)c4cc(C)ccn4)C3)cc2c1` (stereo not drawn) [compound 511], the “% of efficacy (protection)” value in the series on Botrytis cinerea is recorded as 100%; with Sphaerotheca fuliginea, 88%; in the series with Septoria tritici, 100%; in the series with Phytophthora infestans it was 100%. Further, the “log P” value in series [1] (setting [2]) is 1.95[a].
For the molecule `C#Cc1cnc2ccc(C3=NOC(OC)(C(=O)NC(C)(C)c4nc(C)cs4)C3)cc2c1` (stereo not drawn) [compound 514], the “% of efficacy (protection)” value turned out to be 100% in the series with Botrytis cinerea, 75% with Sphaerotheca fuliginea, 98% with Septoria tritici and 97% in the series with Phytophthora infestans. Besides, the “log P” value in series [1] (setting [4]) was 2.90[a].
Consider `C#Cc1cnc2c(C)cc(C3=NOC(C)(C(=O)NCc4cn(CCC)nc4C)C3)cc2c1` (stereo not drawn) [compound 533], for which the “% of efficacy (protection)” value with Botrytis cinerea is 100%; in the series with Sphaerotheca fuliginea, 100%; with Septoria tritici, 100%; in the series with Phytophthora infestans it was 90%. Further, the “log P” value in series [1] (setting [4]) was 2.90[a].
With `C#Cc1cnc2c(Cl)cc(C3=NOC(C)(C(=O)NCc4cn(CC)nc4C)C3)cc2c1` (stereo not drawn) [compound 550], the “% of efficacy (protection)” value in the series with Botrytis cinerea is 98%; in the series on Sphaerotheca fuliginea it was 80%; in the series with Septoria tritici, 100%; in the series on Phytophthora infestans, 83%. Also, in series [1] (setting [4]), the “log P” value was 2.53[a].
The corresponding values for `CCn1cc(CNC(=O)C2(SC)CC(c3ccc4ncc(Br)cc4c3)=NO2)c(C)n1` (stereo not drawn) [compound 565] are 100%, 98%, 100%, 99% and 2.51[a].
In the case of `C#Cc1cnc2ccc(C3=NOC(C=C)(C(=O)NCC4COC(C)(C)O4)C3)cc2c1` (stereo not drawn) [compound 725], the “% of efficacy (protection)” value is on record as 98% with Botrytis cinerea, 98% in the series on Sphaerotheca fuliginea, 100% in the series on Septoria tritici and 83% in the series on Phytophthora infestans. Further, in series [1] (setting [5]), the “log P” value was 2.66[a].
In the case of `C=CC1(C(=O)NCCCOCC)CC(c2ccc3ncc(I)cc3c2)=NO1` (stereo not drawn) [compound 730], the “% of efficacy (protection)” value in the series on Botrytis cinerea was determined as 85%; with Sphaerotheca fuliginea, 98%; in the series with Septoria tritici it was 100%; with Phytophthora infestans it was 100%. The “log P” value in series [1] (setting [5]) was 3.19[a].
